In patent US12427152B2, “HDAC inhibitors for use with NK cell based therapies” (Viracta Therapeutics, Inc., priority 2016, dated 2025):

Legend:
[1] = system: PBMCs from patients with metastatic breast cancer; experiment: Flow cytometry of immune cell subsets in PBMCs of patients with metastatic breast cancer; format: cell-based, human; conditions: 657 nM, 2.5 h/day, 2 days
Method: Peripheral blood mononuclear cells (PBMCs) from 7 patients with metastatic breast cancer were exposed to VRx-3996 daily (657 nM, 2.5 h/day) or DMSO control for 2 consecutive days and then examined by flow cytometry for different immune cell subsets analyzed: 9 standard immune cell subsets, 114 subsets relating to maturation/function.

[2] = system: HDAC; experiment: Immunoblot for acetyl-lysine 9 on Histone H3 (HDAC activity) in PC3 cells; format: cell-based; conditions: 657 nM, 2.5 h
Method: (§1) VRx-3996 was tested for its ability to inhibit HDAC activity in PC3 (prostate) and MDA-MB-231 (triple negative breast cancer) carcinoma cells. Cells were exposed to for 2.5 h to VRx-3996 (657 nM), or DMSO prior to being examined for the presence of acetyl-lysine 9 on Histone H3 by immunoblot.

[3] = system: PC3 cells; experiment: NK cell lysis assay (In-111 release) with PC3 cells as target; format: cell-based; conditions: 657 nM, 2.5 h/day, 4 days, targets on day 5, primary NK cells and HaNK
Method: Tumor cell lines PC3 and MDA-MB-231, treated with VRx-3996, were tested for their ability to be killed by different primary NK cells and the NK cell line HaNK (NK cells with a high-affinity Fc receptor which has a mutation at 158V of human FcγRIIIa). PC3 and MDA-MB-231 cells were exposed to DMSO or CHR-3996 daily (657 nM, 2.5 h/day) for 4 consecutive days, prior to being used as targets on day 5 for direct NK killing in an overnight standard In-111 release lysis assay. Primary NK cells from human PBMCs of 2 healthy donors (isolated by negative selection), and NKs rested for 24 h at 37 C° and 5% CO2, or pre-exposed to ALT803 (25 ng/ml) for 24 h, were used. HaNK cells were used 24 h post 10 Gy radiation exposure. NK cells were plated and varying effector to target ratios (E:T) against PC3 cells (FIG. 3) and MDA-MB-231 cells (FIG. 4).

[4] = system: PC3 cells; experiment: Cell surface phenotype of PC3 cells by flow cytometry; format: cell-based; conditions: 657 nM, 2.5 h/day, 4 days
Method: (§2) After treatment with DMSO (vehicle) or VRx-3996, PC3 or […] cells were analyzed for their cell surface phenotype. Cells were exposed to CHR-3996 daily (657 nM, 2.5 h/day) or DMSO control for 4 consecutive days; on day 5, cells were examined by flow cytometry for cell-surface expression of proteins associated with immune recognition, stimulation, and inhibition. Overall VRx-3996 led to several changes in both cell lines.

[5] = system: HDAC; experiment: Immunoblot for acetyl-lysine 9 on Histone H3 (HDAC activity) in MDA-MB-231 cells; format: cell-based; conditions: 657 nM, 2.5 h
Method: as §1

[6] = system: MDA-MB-231 cells; experiment: Cell surface phenotype of MDA-MB-231 cells by flow cytometry; format: cell-based; conditions: 657 nM, 2.5 h/day, 4 days
Method: as §2

[7] = PBMCs of patients with metastatic cancer

Structure (SMILES): O=C(NO)c1cnc(N2CC3C(C2)C3NCc2ccc3cc(F)ccc3n2)nc1 (centres unmarked) [VRx-3996, 2-(6-{[(6-Fluoroquinolin-2-yl)methyl]amino}-3-azabicyclo[3.1.0]hex-3-yl)-N-hydroxypyrimidine-5-carboxamide]
- FoxP3+ regulatory T cells in PBMCs [1, 7]: Reduces
- FoxP3 in T regulatory subsets (FACS, FIGS. 5A and 5B) [1, 7]: reduced
- B cell median frequency ([1]; PBMCs, 7 patients): 6.37 % of PBMC
- B cells PDL1+ median frequency ([1]; PBMCs, 7 patients): 0.55 % of PBMC
- CD4 CM PD1+ median frequency ([1]; PBMCs, 7 patients): 3.24 % of PBMC
- CD4 median frequency ([1]; PBMCs, 7 patients): 42.36 % of PBMC
- CD8 Tim3+ median frequency ([1]; PBMCs, 7 patients): 0.06 % of PBMC
- CD8 median frequency ([1]; PBMCs, 7 patients): 17.67 % of PBMC
- CD8 naive median frequency ([1]; PBMCs, 7 patients): 4.99 % of PBMC
- CD49d neg Treg median frequency ([1]; PBMCs, 7 patients): 5.66 % of CD4
- ICOS+ CD4 median frequency ([1]; PBMCs, 7 patients): 1.26 % of PBMC
- ICOS+ PD-1+ CD4 median frequency ([1]; PBMCs, 7 patients): 0.5 % of PBMC
- ICOS+ Treg median frequency ([1]; PBMCs, 7 patients): 2.31 % of CD4
- MDSC CD16+ median frequency ([1]; PBMCs, 7 patients): 2.19 % of PBMC
- MDSC median frequency ([1]; PBMCs, 7 patients): 5.32 % of PBMC
- NK median frequency ([1]; PBMCs, 7 patients): 3.46 % of PBMC
- NKT PD1+ median frequency ([1]; PBMCs, 7 patients): 0.75 % of PBMC
- NKT median frequency ([1]; PBMCs, 7 patients): 4.24 % of PBMC
- PD-1+ Treg median frequency ([1]; PBMCs, 7 patients): 2.31 % of CD4
- Total Treg median frequency ([1]; PBMCs, 7 patients): 9.39 % of CD4
- Treg CD49d neg median frequency ([1]; PBMCs, 7 patients): 0.27 % of PBMC
- Treg ICOS+ median frequency ([1]; PBMCs, 7 patients): 0.14 % of PBMC
- Treg median frequency ([1]; PBMCs, 7 patients): 0.47 % of PBMC
- cDC median frequency ([1]; PBMCs, 7 patients): 0.11 % of PBMC
- dnMDSC PDL1+ median frequency ([1]; PBMCs, 7 patients): 0.07 % of PBMC
- dnMDSC median frequency ([1]; PBMCs, 7 patients): 0.36 % of PBMC
- mMDSC CD16+ median frequency ([1]; PBMCs, 7 patients): 2.08 % of PBMC
- mMDSC median frequency ([1]; PBMCs, 7 patients): 4.15 % of PBMC
- pDC median frequency ([1]; PBMCs, 7 patients): <0.01 % of PBMC
- Histone H3 deacetylation (acetyl-lysine 9 on Histone H3) [2]: inhibits Histone H3 deacetylation
- Sensitization of PC3 cells to NK lysis [3]: Sensitizes PC3 Cells to NK Lysis
- CD155 % Pos ([4]; flow cytometry day 5): 95.9%
- CD155 GeoMFI ([4]; flow cytometry day 5): 742
- EGFR % Pos ([4]; flow cytometry day 5): 75.6%
- EGFR GeoMFI ([4]; flow cytometry day 5): 291
- Fas % Pos ([4]; flow cytometry day 5): 35.3%
- Fas GeoMFI ([4]; flow cytometry day 5): 79
- HLA-A, B, C % Pos ([4]; flow cytometry day 5): 94.4%
- HLA-A, B, C GeoMFI ([4]; flow cytometry day 5): 1198
- ICAM-1 % Pos ([4]; flow cytometry day 5): 66.8%
- ICAM-1 GeoMFI ([4]; flow cytometry day 5): 129
- MIC-A/B % Pos ([4]; flow cytometry day 5): 48%
- MIC-A/B GeoMFI ([4]; flow cytometry day 5): 124
- PD-L1 % Pos ([4]; flow cytometry day 5): 28%
- PD-L1 GeoMFI ([4]; flow cytometry day 5): 43
- ULBP-3 % Pos ([4]; flow cytometry day 5): 7.6%
- ULBP-3 GeoMFI ([4]; flow cytometry day 5): 31
- % change CD155 % Pos ([4]; vs DMSO): <5%
- % change CD155 GeoMFI ([4]; vs DMSO): 50%
- % change EGFR % Pos ([4]; vs DMSO): −15%
- % change EGFR GeoMFI ([4]; vs DMSO): −33%
- % change Fas % Pos ([4]; vs DMSO): −32%
- % change Fas GeoMFI ([4]; vs DMSO): −7%
- % change HLA-A, B, C % Pos ([4]; vs DMSO): <5%
- % change HLA-A, B, C GeoMFI ([4]; vs DMSO): 77%
- % change ICAM-1 % Pos ([4]; vs DMSO): <5%
- % change ICAM-1 GeoMFI ([4]; vs DMSO): 32%
- % change MIC-A/B % Pos ([4]; vs DMSO): −20%
- % change MIC-A/B GeoMFI ([4]; vs DMSO): 7%
- % change PD-L1 % Pos ([4]; vs DMSO): −39%
- % change PD-L1 GeoMFI ([4]; vs DMSO): −27%
- % change ULBP-3 % Pos ([4]; vs DMSO): −88%
- % change ULBP-3 GeoMFI ([4]; vs DMSO): −75%
- Histone H3 deacetylation (acetyl-lysine 9 on Histone H3) [5]: inhibits Histone H3 deacetylation
- CD122 % Pos ([6]; flow cytometry day 5): 81.9%
- CD122 GeoMFI ([6]; flow cytometry day 5): 735
- CD155 % Pos ([6]; flow cytometry day 5): 96.1%
- CD155 GeoMFI ([6]; flow cytometry day 5): 2937
- EGFR % Pos ([6]; flow cytometry day 5): 81.9%
- EGFR GeoMFI ([6]; flow cytometry day 5): 735
- Fas % Pos ([6]; flow cytometry day 5): 27.3%
- Fas GeoMFI ([6]; flow cytometry day 5): 190
- HLA-A, B, C % Pos ([6]; flow cytometry day 5): 96.2%
- HLA-A, B, C GeoMFI ([6]; flow cytometry day 5): 2470
- ICAM-1 % Pos ([6]; flow cytometry day 5): 96.2%
- ICAM-1 GeoMFI ([6]; flow cytometry day 5): 8554
- MIC-A/B % Pos ([6]; flow cytometry day 5): 94.6%
- MIC-A/B GeoMFI ([6]; flow cytometry day 5): 2880
- PD-L1 % Pos ([6]; flow cytometry day 5): 80%
- PD-L1 GeoMFI ([6]; flow cytometry day 5): 303
- TRAIL-R1(DR4) % Pos ([6]; flow cytometry day 5): 27.1%
- TRAIL-R1(DR4) GeoMFI ([6]; flow cytometry day 5): 107
- ULBP-2/5/6 % Pos ([6]; flow cytometry day 5): 75.9%
- ULBP-2/5/6 GeoMFI ([6]; flow cytometry day 5): 365
- % change CD122 % Pos ([6]; vs DMSO): −10%
- % change CD122 GeoMFI ([6]; vs DMSO): 119%
- % change CD155 % Pos ([6]; vs DMSO): <5%
- % change CD155 GeoMFI ([6]; vs DMSO): 197%
- % change EGFR % Pos ([6]; vs DMSO): −10%
- % change EGFR GeoMFI ([6]; vs DMSO): 119%
- % change Fas % Pos ([6]; vs DMSO): −23%
- % change Fas GeoMFI ([6]; vs DMSO): 184%
- % change HLA-A, B, C % Pos ([6]; vs DMSO): <5%
- % change HLA-A, B, C GeoMFI ([6]; vs DMSO): 142%
- % change ICAM-1 % Pos ([6]; vs DMSO): <5%
- % change ICAM-1 GeoMFI ([6]; vs DMSO): 546%
- % change MIC-A/B % Pos ([6]; vs DMSO): 6%
- % change MIC-A/B GeoMFI ([6]; vs DMSO): 411%
- % change PD-L1 % Pos ([6]; vs DMSO): <5%
- % change PD-L1 GeoMFI ([6]; vs DMSO): 175%
- % change TRAIL-R1(DR4) % Pos ([6]; vs DMSO): 293%
- % change TRAIL-R1(DR4) GeoMFI ([6]; vs DMSO): 1290%
- % change ULBP-2/5/6 % Pos ([6]; vs DMSO): 6.5%
- % change ULBP-2/5/6 GeoMFI ([6]; vs DMSO): 244%
